Source: ChEMBL document CHEMBL5252613, “Discovery and anti-tumor activity of 4-(benzylamino)-6-(3,5-dimethylisoxazol-4-yl)quinolin-2(1H)-one (CG13250), a potent, selective and orally bioavailable BET bromodomain inhibitor” (Bioorg Med Chem Lett, 2023)
Calls of active or inactive are those of the source. The calls are words filed in the database; no cut-off is given here.

What was measured:
[1] = target: T1, Bromodomain-containing protein 4 (Homo sapiens, UniProt O60885); experiment: Inhibition of BRD4 bromodomain 1/2 (unknown origin) assessed as dissociation constant by DiscoveRx BROMOscan assay
[2] = system: MV4-11; experiment: Growth inhibition of human MV4-11 cells measured after 72 hrs; format: functional
[3] = target: T1, Bromodomain-containing protein 4; experiment: Inhibition of BRD4 bromodomain 1/2 (unknown origin) by Alphascreen assay
[4] = system: Kasumi 1; experiment: Antitumor activity against human Kasumi 1 cells xenografted in mouse assessed as tumor growth inhibition at 50 mg/kg, po administered once a day for 15 days starting from 25 days after transplantation relative to control; format: functional; details: Kasumi 1, 360 h, time 15 day, read-out: TGI
[5] = Cmax in rat plasma at 50 mg/kg, po; format: ADME, organism-based; parameters: dose 50 mg/kg, route po
[6] = target: CREB-binding protein (Homo sapiens) (UniProt Q92793); experiment: Inhibition of CREBBP (unknown origin) at 10 uM by DiscoverX BROMOscan assay
[7] = Tmax in CD-1 mouse plasma at 50 mg/kg, po; format: ADME, organism-based
[8] = Stability in human liver microsomes assessed as half-life; format: ADME, Microsome
[9] = Cmax in CD-1 mouse plasma at 10 mg/kg, sc; format: ADME, organism-based; parameters: dose 10 mg/kg, route sc
[10] = Toxicity in mouse xenografted with human Kasumi 1 cells assessed as effect on body weight at 50 mg/kg, po administered once a day for 15 days starting from 25 days after transplantation; format: organism-based; details: in vivo, 360 h, time 15 day
[11] = Half-life in CD-1 mouse plasma at 10 mg/kg, sc; format: ADME, organism-based
[12] = Half-life in rat plasma at 50 mg/kg, po; format: ADME, organism-based
[13] = target: Non-receptor tyrosine-protein kinase TYK2 (Homo sapiens) (UniProt P29597); experiment: Inhibition of TYK2 (unknown origin) at 10 uM by DiscoverX KINOMEscan relative to control
[14] = target: T2, Peregrin (Homo sapiens) (UniProt P55201); experiment: Inhibition of BRPF1 (unknown origin) at 10 uM by DiscoverX BROMOscan assay
T2 sequence (whole entry): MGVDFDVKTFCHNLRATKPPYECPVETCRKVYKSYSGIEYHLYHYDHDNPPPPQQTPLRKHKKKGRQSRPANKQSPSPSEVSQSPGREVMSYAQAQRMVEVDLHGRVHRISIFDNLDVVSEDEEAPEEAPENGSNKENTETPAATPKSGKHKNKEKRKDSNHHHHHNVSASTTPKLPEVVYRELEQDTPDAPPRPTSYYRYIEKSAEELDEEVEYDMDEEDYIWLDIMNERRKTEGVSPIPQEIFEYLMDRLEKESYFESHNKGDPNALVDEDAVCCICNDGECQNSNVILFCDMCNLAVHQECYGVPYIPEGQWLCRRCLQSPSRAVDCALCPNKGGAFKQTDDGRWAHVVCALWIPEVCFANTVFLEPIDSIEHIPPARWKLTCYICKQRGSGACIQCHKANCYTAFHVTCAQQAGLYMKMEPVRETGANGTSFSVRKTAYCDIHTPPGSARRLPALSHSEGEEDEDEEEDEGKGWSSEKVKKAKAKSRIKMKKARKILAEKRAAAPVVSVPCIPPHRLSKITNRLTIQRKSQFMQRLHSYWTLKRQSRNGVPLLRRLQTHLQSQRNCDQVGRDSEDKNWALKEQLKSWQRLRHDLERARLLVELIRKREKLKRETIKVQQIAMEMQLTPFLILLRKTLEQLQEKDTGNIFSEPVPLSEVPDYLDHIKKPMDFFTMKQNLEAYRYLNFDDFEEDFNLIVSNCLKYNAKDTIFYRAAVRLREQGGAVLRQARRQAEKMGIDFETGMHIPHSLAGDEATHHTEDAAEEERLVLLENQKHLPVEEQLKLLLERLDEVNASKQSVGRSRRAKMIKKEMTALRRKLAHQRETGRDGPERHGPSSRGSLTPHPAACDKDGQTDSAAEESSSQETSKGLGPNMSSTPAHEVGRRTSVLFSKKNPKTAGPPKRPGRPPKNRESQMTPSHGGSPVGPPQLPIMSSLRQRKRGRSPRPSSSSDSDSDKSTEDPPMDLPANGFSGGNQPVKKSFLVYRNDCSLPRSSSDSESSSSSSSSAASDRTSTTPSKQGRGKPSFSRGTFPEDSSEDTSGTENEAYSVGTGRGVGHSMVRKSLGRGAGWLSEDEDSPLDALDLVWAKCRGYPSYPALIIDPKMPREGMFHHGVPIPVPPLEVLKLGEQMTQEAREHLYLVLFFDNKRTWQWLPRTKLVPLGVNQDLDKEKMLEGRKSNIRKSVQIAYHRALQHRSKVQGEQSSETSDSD

[15] = target: Cytochrome P450 2C9 (Homo sapiens, UniProt P11712); experiment: Inhibition of CYP2C9 (unknown origin) by fluorescence based assay; format: ADME
[16] = AUC(0 to t) in CD-1 mouse plasma at 10 mg/kg, sc; format: ADME, organism-based; parameters: dose 10 mg/kg, route sc
[17] = target: Cytochrome P450 2C19 (Homo sapiens, UniProt P33261); experiment: Inhibition of CYP2C19 (unknown origin) by fluorescence based assay; format: ADME
[18] = target: Tyrosine-protein kinase JAK1 (Homo sapiens) (UniProt P23458); experiment: Inhibition of JAK1 JH2 (unknown origin) at 10 uM by DiscoverX KINOMEscan relative to control
[19] = Cmax in CD-1 mouse plasma at 50 mg/kg, po; format: ADME, organism-based; parameters: dose 50 mg/kg, route po
[20] = target: Cytochrome P450 2D6 (Homo sapiens, UniProt P10635); experiment: Inhibition of CYP2D6 (unknown origin) by fluorescence based assay; format: ADME
[21] = target: Histone acetyltransferase p300 (Homo sapiens) (UniProt Q09472); experiment: Inhibition of EP300 (unknown origin) at 10 uM by DiscoverX BROMOscan assay
[22] = Tmax in rat plasma at 50 mg/kg, po; format: ADME, organism-based
[23] = Stability in mouse liver microsomes assessed as half-life; format: ADME, Microsome
[24] = Half-life in CD-1 mouse brain at 50 mg/kg, po; format: ADME, organism-based
[25] = target: T3, Cytochrome P450 1A2 (Homo sapiens, UniProt P05177); experiment: Inhibition of CYP1A2 (unknown origin) by fluorescence based assay; format: ADME
T3 sequence (P05177 whole entry): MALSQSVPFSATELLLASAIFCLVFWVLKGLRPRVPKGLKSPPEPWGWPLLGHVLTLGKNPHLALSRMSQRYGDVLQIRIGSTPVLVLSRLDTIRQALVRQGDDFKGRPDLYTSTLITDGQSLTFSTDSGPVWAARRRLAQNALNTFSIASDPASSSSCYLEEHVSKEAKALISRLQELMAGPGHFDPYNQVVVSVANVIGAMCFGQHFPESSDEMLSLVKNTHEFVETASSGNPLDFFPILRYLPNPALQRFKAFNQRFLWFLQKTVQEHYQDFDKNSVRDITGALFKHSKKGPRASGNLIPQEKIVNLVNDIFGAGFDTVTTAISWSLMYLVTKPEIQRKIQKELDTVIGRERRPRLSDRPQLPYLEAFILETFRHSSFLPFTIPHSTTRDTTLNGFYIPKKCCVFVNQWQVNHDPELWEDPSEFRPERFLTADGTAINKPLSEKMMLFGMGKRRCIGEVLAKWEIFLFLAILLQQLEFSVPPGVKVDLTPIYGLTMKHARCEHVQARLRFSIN

[26] = target: Cytochrome P450 3A4 (Homo sapiens, UniProt P08684); experiment: Inhibition of CYP3A4 (unknown origin) by fluorescence based assay; format: ADME
[27] = Cmax in CD-1 mouse brain at 50 mg/kg, po; format: ADME, organism-based; parameters: dose 50 mg/kg, route po
[28] = Tmax in CD-1 mouse brain at 50 mg/kg, po; format: ADME, organism-based
[29] = AUC(0 to t) in CD-1 mouse plasma at 50 mg/kg, po; format: ADME, organism-based; parameters: dose 50 mg/kg, route po
[30] = AUC(0 to t) in rat plasma at 50 mg/kg, po; format: ADME, organism-based; parameters: dose 50 mg/kg, route po
[31] = target: T4, Bromodomain-containing protein 9 (Homo sapiens) (UniProt Q9H8M2); experiment: Inhibition of BRD9 (unknown origin) at 10 uM by DiscoverX BROMOscan assay
T4 sequence (whole entry): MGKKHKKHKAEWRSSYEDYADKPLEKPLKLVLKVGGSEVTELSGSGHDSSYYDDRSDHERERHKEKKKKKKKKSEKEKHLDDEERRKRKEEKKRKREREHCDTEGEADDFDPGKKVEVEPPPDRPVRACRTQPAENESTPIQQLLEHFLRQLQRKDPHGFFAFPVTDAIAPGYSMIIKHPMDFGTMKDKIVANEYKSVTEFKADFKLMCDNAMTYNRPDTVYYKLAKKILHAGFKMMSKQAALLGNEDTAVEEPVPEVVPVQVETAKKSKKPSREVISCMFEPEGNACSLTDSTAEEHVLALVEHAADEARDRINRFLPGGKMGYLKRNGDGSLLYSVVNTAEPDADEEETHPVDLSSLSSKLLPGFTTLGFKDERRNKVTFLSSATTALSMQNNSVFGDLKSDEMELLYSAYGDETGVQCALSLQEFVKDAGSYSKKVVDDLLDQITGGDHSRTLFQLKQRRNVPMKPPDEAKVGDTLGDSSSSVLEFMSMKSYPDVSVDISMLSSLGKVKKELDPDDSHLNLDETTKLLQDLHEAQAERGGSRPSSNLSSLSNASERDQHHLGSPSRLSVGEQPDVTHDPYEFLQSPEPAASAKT

[32] = AUC(0 to t) in CD-1 mouse brain at 50 mg/kg, po; format: ADME, organism-based; parameters: dose 50 mg/kg, route po
[33] = Toxicity in mouse xenografted with human Kasumi 1 cells assessed as signs of toxicity at 50 mg/kg, po administered once a day for 15 days starting from 25 days after transplantation; format: organism-based; details: in vivo, 360 h, time 15 day
[34] = Tmax in CD-1 mouse plasma at 10 mg/kg, sc; format: ADME, organism-based
[35] = Half-life in CD-1 mouse plasma at 50 mg/kg, po; format: ADME, organism-based

Chain of Histone acetyltransferase p300 (Homo sapiens) (Q09472 whole entry): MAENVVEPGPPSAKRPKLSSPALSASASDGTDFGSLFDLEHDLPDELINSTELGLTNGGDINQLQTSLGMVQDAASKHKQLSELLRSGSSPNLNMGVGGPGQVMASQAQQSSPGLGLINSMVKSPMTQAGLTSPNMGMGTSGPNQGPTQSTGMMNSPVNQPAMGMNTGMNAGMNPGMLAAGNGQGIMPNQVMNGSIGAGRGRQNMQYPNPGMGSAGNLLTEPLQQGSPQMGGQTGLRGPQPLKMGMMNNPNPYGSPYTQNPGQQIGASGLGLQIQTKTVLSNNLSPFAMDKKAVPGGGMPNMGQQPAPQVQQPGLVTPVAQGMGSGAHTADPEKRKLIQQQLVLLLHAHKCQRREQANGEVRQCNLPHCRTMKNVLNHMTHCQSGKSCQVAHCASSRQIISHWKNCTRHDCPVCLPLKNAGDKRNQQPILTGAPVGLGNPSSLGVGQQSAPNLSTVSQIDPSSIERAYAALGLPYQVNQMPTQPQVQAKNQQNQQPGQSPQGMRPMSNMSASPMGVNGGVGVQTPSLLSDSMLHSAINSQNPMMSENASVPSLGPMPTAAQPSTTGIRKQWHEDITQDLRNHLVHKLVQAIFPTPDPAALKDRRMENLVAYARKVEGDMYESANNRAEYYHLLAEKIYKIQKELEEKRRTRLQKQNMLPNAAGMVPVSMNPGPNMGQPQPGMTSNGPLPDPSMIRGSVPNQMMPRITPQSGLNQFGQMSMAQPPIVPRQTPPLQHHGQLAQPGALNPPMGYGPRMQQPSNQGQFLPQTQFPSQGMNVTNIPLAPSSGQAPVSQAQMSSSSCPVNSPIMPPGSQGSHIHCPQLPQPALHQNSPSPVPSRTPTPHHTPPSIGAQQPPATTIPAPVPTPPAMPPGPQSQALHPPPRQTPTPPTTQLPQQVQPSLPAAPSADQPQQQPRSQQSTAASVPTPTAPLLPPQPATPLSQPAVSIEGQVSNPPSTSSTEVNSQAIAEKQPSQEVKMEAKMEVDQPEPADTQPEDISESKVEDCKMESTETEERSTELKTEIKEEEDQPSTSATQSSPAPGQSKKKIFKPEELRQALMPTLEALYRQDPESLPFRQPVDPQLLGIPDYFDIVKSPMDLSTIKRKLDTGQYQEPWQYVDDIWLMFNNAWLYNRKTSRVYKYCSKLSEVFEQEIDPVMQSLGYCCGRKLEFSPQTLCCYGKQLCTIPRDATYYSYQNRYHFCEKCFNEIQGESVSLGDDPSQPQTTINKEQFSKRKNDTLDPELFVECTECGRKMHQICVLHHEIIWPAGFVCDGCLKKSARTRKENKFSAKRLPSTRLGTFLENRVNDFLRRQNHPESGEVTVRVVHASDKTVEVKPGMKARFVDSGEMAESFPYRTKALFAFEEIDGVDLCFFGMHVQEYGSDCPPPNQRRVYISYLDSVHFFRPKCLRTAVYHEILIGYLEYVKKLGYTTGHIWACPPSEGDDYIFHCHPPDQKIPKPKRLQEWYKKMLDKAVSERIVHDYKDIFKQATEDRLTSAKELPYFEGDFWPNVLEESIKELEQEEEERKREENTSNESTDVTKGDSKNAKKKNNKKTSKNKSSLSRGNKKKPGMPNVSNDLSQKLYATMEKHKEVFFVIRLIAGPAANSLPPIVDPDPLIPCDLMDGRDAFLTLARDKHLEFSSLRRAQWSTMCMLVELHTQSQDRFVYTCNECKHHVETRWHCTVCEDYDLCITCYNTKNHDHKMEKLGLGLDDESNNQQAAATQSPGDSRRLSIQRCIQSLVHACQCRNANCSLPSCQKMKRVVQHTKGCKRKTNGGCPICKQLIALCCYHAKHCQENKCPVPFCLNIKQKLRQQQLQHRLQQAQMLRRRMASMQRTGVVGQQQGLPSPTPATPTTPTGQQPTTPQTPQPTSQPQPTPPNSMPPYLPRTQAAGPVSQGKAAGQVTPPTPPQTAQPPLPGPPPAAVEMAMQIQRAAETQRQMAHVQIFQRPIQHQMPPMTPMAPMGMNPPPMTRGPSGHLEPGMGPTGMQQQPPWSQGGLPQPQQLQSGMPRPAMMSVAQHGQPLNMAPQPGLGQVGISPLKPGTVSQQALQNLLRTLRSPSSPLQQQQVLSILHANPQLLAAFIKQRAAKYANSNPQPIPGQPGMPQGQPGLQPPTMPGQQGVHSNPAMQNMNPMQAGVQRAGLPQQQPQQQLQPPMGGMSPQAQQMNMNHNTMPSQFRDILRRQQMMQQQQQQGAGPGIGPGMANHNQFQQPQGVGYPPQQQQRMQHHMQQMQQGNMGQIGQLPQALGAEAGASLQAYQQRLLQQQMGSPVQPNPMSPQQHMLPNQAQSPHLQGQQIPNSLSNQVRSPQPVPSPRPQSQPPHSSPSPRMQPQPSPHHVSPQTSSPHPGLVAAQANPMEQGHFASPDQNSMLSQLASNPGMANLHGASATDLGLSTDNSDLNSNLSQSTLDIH
Chain of Tyrosine-protein kinase JAK1 (Homo sapiens) (P23458 whole entry): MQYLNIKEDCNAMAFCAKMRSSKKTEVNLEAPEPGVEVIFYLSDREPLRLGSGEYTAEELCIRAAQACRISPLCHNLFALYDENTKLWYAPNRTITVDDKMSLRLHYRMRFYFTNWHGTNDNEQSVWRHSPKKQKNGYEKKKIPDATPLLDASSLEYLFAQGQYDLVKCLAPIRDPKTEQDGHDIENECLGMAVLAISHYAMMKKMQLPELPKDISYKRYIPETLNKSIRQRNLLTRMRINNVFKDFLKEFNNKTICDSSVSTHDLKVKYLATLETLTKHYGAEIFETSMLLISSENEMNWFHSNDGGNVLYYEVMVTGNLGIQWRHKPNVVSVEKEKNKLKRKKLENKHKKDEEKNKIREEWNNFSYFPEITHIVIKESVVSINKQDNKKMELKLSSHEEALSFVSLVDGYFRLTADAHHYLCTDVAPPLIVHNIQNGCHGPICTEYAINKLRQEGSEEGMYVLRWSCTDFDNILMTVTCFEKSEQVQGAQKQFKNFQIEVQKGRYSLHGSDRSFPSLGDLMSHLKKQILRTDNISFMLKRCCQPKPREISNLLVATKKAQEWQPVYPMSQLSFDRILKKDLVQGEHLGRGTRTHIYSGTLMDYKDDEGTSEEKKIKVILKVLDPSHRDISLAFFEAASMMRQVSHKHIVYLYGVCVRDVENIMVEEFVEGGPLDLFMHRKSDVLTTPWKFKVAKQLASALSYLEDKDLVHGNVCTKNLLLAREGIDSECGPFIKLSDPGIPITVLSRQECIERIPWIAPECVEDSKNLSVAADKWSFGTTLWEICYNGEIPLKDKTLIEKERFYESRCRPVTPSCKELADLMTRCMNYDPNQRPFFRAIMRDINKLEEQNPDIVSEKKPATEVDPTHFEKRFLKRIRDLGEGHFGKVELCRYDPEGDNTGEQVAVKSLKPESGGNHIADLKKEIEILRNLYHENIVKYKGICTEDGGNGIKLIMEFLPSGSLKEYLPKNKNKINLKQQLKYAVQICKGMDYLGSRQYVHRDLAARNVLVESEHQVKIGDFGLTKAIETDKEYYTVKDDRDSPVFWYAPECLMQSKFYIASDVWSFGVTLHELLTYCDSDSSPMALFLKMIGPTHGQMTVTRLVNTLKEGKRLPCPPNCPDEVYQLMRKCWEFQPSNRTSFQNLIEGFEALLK
Chain of Non-receptor tyrosine-protein kinase TYK2 (Homo sapiens) (P29597 whole entry): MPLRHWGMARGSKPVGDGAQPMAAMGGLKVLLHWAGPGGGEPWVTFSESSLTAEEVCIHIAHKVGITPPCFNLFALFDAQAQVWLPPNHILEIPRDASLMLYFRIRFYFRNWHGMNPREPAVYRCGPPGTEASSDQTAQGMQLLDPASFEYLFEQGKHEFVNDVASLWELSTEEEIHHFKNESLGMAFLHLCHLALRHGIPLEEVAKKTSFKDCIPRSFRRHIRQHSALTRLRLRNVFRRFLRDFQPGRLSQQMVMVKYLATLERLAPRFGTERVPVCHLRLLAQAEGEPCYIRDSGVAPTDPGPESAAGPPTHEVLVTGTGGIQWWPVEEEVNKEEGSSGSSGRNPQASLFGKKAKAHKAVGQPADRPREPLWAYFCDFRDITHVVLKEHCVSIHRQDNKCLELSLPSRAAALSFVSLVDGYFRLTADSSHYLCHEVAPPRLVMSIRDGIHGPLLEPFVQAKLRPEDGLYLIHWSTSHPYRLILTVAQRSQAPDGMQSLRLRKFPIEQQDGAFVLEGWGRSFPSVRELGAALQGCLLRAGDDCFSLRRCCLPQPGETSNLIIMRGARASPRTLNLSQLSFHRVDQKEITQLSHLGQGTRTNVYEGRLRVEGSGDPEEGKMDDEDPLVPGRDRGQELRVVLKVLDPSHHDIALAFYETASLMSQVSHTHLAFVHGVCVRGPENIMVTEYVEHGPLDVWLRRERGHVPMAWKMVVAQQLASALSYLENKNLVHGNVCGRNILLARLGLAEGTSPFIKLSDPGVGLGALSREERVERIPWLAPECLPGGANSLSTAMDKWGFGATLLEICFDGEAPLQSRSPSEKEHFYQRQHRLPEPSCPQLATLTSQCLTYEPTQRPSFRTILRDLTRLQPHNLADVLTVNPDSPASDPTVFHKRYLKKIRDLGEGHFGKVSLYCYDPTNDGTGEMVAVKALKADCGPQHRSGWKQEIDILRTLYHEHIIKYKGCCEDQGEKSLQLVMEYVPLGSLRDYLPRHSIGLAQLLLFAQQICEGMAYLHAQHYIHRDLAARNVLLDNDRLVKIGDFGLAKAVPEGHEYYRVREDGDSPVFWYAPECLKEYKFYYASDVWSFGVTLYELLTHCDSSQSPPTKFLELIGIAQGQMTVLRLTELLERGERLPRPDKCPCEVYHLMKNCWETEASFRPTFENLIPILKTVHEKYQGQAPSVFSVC

SMILES: Cc1noc(C)c1-c1ccc2[nH]c(=O)cc(NCc3ccccc3Br)c2c1
- Kd [1]: 210 nM
- GI50 [2]: 3500 nM

SMILES: Cc1ccc(-c2nnc(Sc3c(-c4ccccc4)c4cc(Br)ccc4[nH]c3=O)n2N)cc1
- IC50 [3]: 3700 nM
- GI50 [2]: 220 nM

SMILES: Cc1noc(C)c1-c1ccc2[nH]c(=O)cc(NCc3ccccc3F)c2c1
- Kd [1]: 130 nM

SMILES: Cc1noc(C)c1-c1ccc2[nH]c(=O)cc(NCc3ccccc3Cl)c2c1
- Kd [1]: 55 nM
- GI50 [2]: 1660 nM

SMILES: Cc1noc(C)c1-c1ccc2[nH]c(=O)cc(NCc3cccc(Br)c3)c2c1
- Kd [1]: 53 nM
- GI50 [2]: 731 nM

SMILES: Cc1noc(C)c1-c1ccc2[nH]c(=O)cc(-c3ccccc3)c2c1
- IC50 [3]: 3100 nM
- Kd [1]: 1300 nM
- GI50 [2]: 16000 nM

SMILES: Cc1noc(C)c1-c1ccc2[nH]c(=O)cc(NCc3ccccc3)c2c1
- inhibition in vivo at 50 mg/kg [4]: 60%
- Cmax [5]: 9340 ng/mL
- inhibition [6]: Active
- Tmax [7]: 2 h
- half-life [8]: 0.202 h
- Cmax [9]: 7770 ng/mL
- Activity [10]: Non-Toxic
- half-life [11]: 2.33 h
- half-life [12]: 2 h
- inhibition [13]: > 65%
- inhibition [14]: Active
- IC50 [3]: 1100 nM
- IC50 [15]: 6770 nM
- AUC(0-t) [16]: 25100 ng·h/mL
- IC50 [17]: > 30000 nM
- inhibition [18]: > 65%
- Cmax [19]: 60900 ng/mL
- IC50 [20]: > 30000 nM
- inhibition [21]: Active
- Tmax [22]: 1.5 h
- half-life [23]: 0.412 h
- half-life [24]: 1.39 h
- IC50 [25]: > 30000 nM
- IC50 [26]: > 30000 nM
- Cmax [27]: 289 ng/mL
- Tmax [28]: 0.5 h
- AUC(0-t) [29]: 178000 ng·h/mL
- AUC(0-t) [30]: 34600 ng·h/mL
- inhibition [31]: Active
- AUC(0-t) [32]: 755 ng·h/mL
- Activity [33]: Non-Toxic
- Tmax [34]: 1 h
- half-life [35]: 1.02 h
- Kd [1]: 44 nM
- GI50 [2]: 595 nM

SMILES: COc1ccccc1CNc1cc(=O)[nH]c2ccc(-c3c(C)noc3C)cc12
- Kd [1]: 35 nM
- GI50 [2]: 1040 nM

SMILES: Cc1noc(C)c1-c1ccc2[nH]c(=O)cc(N3CCCCC3)c2c1
- Kd [1]: 54 nM
- GI50 [2]: 833 nM

SMILES: Cc1noc(C)c1-c1ccc2[nH]c(=O)cc(N3CCCC3)c2c1
- Kd [1]: 370 nM
- GI50 [2]: 1990 nM
